# Measurements from publication PMC5433425 (PeerJ, 2017).
# Where two headings read alike, the source gives them in different places.
# Legend:
# E. coli AG100A [1] = assay: EtBr efflux by real-time fluorometry; conditions: 20 µM, without glucose
# Experimental: Control tubes with only cells and cells with and without 0.4% glucose were included. The fluorescence was measured in a Rotor-Gene 3000 and the data was acquired every 30 s for 30 min at 37 °C. The efflux activity was quantified by comparing the fluorescence data obtained under conditions that promote efflux (presence of glucose and absence of efflux inhibitor) with the data from the control in which the bacteria are under conditions of no efflux (presence of an inhibitor and no energy source).
# E. coli AG100A [2] = conditions: EtBr […] + inhibitor 20 µM
compound,measurement,setting,value
"CCCOc1ccc(-c2cc(OCCN3CCNCC3)c3ccccc3n2)cc1 [PQQ4R, 4-(2-(piperazin-1-yl)ethoxy)-2-(4-propoxyphenyl) quinolone]",EtBr fluorescence (Channel Cycling A.530/585hp),E. coli AG100A [1]; cycle 1,5.807
same,EtBr fluorescence (Channel Cycling A.530/585hp),E. coli AG100A [1]; cycle 2,5.662
same,EtBr fluorescence (Channel Cycling A.530/585hp),E. coli AG100A [1]; cycle 3,5.478
same,EtBr fluorescence (Channel Cycling A.530/585hp),E. coli AG100A [1]; cycle 4,5.356
same,EtBr fluorescence (Channel Cycling A.530/585hp),E. coli AG100A [1]; cycle 5,5.183
same,EtBr fluorescence (Channel Cycling A.530/585hp),E. coli AG100A [1]; cycle 6,5.1485
same,EtBr fluorescence (Channel Cycling A.530/585hp),E. coli AG100A [1]; cycle 7,5.025
same,EtBr fluorescence (Channel Cycling A.530/585hp),E. coli AG100A [1]; cycle 8,4.924
same,EtBr fluorescence (Channel Cycling A.530/585hp),E. coli AG100A [1]; cycle 9,4.937
same,EtBr fluorescence (Channel Cycling A.530/585hp),E. coli AG100A [1]; cycle 10,4.811
same,EtBr fluorescence (Channel Cycling A.530/585hp),E. coli AG100A [1]; cycle 11,4.773
same,EtBr fluorescence (Channel Cycling A.530/585hp),E. coli AG100A [1]; cycle 12,4.602
same,EtBr fluorescence (Channel Cycling A.530/585hp),E. coli AG100A [1]; cycle 13,4.634
same,EtBr fluorescence (Channel Cycling A.530/585hp),E. coli AG100A [1]; cycle 14,4.745
same,EtBr fluorescence (Channel Cycling A.530/585hp),E. coli AG100A [1]; cycle 15,4.684
same,EtBr fluorescence (Channel Cycling A.530/585hp),E. coli AG100A [1]; cycle 16,4.629
same,EtBr fluorescence (Channel Cycling A.530/585hp),E. coli AG100A [1]; cycle 17,4.631
same,EtBr fluorescence (Channel Cycling A.530/585hp),E. coli AG100A [1]; cycle 18,4.599
same,EtBr fluorescence (Channel Cycling A.530/585hp),E. coli AG100A [1]; cycle 19,4.579
same,EtBr fluorescence (Channel Cycling A.530/585hp),E. coli AG100A [1]; cycle 20,4.522
same,EtBr fluorescence (Channel Cycling A.530/585hp),E. coli AG100A [1]; cycle 21,4.504
same,EtBr fluorescence (Channel Cycling A.530/585hp),E. coli AG100A [1]; cycle 22,4.567
same,EtBr fluorescence (Channel Cycling A.530/585hp),E. coli AG100A [1]; cycle 23,4.591
same,EtBr fluorescence (Channel Cycling A.530/585hp),E. coli AG100A [1]; cycle 24,4.544
same,EtBr fluorescence (Channel Cycling A.530/585hp),E. coli AG100A [1]; cycle 25,4.652
same,EtBr fluorescence (Channel Cycling A.530/585hp),E. coli AG100A [1]; cycle 26,4.627
same,EtBr fluorescence (Channel Cycling A.530/585hp),E. coli AG100A [1]; cycle 27,4.498
same,EtBr fluorescence (Channel Cycling A.530/585hp),E. coli AG100A [1]; cycle 28,4.577
same,EtBr fluorescence (Channel Cycling A.530/585hp),E. coli AG100A [1]; cycle 29,4.648
same,EtBr fluorescence (Channel Cycling A.530/585hp),E. coli AG100A [1]; cycle 30,4.639
same,EtBr fluorescence (Channel Cycling A.530/585hp),E. coli AG100A [1]; cycle 31,4.704
same,EtBr fluorescence (Channel Cycling A.530/585hp),E. coli AG100A [1]; cycle 32,4.705
same,EtBr fluorescence (Channel Cycling A.530/585hp),E. coli AG100A [1]; cycle 33,4.739
same,EtBr fluorescence (Channel Cycling A.530/585hp),E. coli AG100A [1]; cycle 34,4.713
same,EtBr fluorescence (Channel Cycling A.530/585hp),E. coli AG100A [1]; cycle 35,4.766
same,EtBr fluorescence (Channel Cycling A.530/585hp),E. coli AG100A [1]; cycle 36,4.793
same,EtBr fluorescence (Channel Cycling A.530/585hp),E. coli AG100A [1]; cycle 37,4.818
same,EtBr fluorescence (Channel Cycling A.530/585hp),E. coli AG100A [1]; cycle 38,4.849
same,EtBr fluorescence (Channel Cycling A.530/585hp),E. coli AG100A [1]; cycle 39,4.826
same,EtBr fluorescence (Channel Cycling A.530/585hp),E. coli AG100A [1]; cycle 40,4.8647
same,EtBr fluorescence (Channel Cycling A.530/585hp),E. coli AG100A [1]; cycle 41,4.7891
same,EtBr fluorescence (Channel Cycling A.530/585hp),E. coli AG100A [1]; cycle 42,4.94
same,EtBr fluorescence (Channel Cycling A.530/585hp),E. coli AG100A [1]; cycle 43,5.003
same,EtBr fluorescence (Channel Cycling A.530/585hp),E. coli AG100A [1]; cycle 44,5
same,EtBr fluorescence (Channel Cycling A.530/585hp),E. coli AG100A [1]; cycle 45,5.002
same,EtBr fluorescence (Channel Cycling A.530/585hp),E. coli AG100A [1]; cycle 46,5.099
same,EtBr fluorescence (Channel Cycling A.530/585hp),E. coli AG100A [1]; cycle 47,5.05
same,EtBr fluorescence (Channel Cycling A.530/585hp),E. coli AG100A [1]; cycle 48,5.085
same,EtBr fluorescence (Channel Cycling A.530/585hp),E. coli AG100A [1]; cycle 49,5.044
same,EtBr fluorescence (Channel Cycling A.530/585hp),E. coli AG100A [1]; cycle 50,5.1253
same,EtBr fluorescence (Channel Cycling A.530/585hp),E. coli AG100A [1]; cycle 51,5.103
same,EtBr fluorescence (Channel Cycling A.530/585hp),E. coli AG100A [1]; cycle 52,5.071
same,EtBr fluorescence (Channel Cycling A.530/585hp),E. coli AG100A [1]; cycle 53,5.2927
same,EtBr fluorescence (Channel Cycling A.530/585hp),E. coli AG100A [1]; cycle 54,5.227
same,EtBr fluorescence (Channel Cycling A.530/585hp),E. coli AG100A [1]; cycle 55,5.134
same,EtBr fluorescence (Channel Cycling A.530/585hp),E. coli AG100A [1]; cycle 56,5.328
same,EtBr fluorescence (Channel Cycling A.530/585hp),E. coli AG100A [1]; cycle 57,5.315
same,EtBr fluorescence (Channel Cycling A.530/585hp),E. coli AG100A [1]; cycle 58,5.365
same,EtBr fluorescence (Channel Cycling A.530/585hp),E. coli AG100A [1]; cycle 59,5.339
same,EtBr fluorescence (Channel Cycling A.530/585hp),E. coli AG100A [1]; cycle 60,5.32
same,EtBr fluorescence (Channel Cycling A.530/585hp),E. coli AG100A [1]; cycle 61,5.417
same,EtBr fluorescence,E. coli AG100A [2]; cycle 1,3.005
same,EtBr fluorescence,E. coli AG100A [2]; cycle 2,3.689
same,EtBr fluorescence,E. coli AG100A [2]; cycle 3,4.425
same,EtBr fluorescence,E. coli AG100A [2]; cycle 4,5.09
same,EtBr fluorescence,E. coli AG100A [2]; cycle 5,5.663
same,EtBr fluorescence,E. coli AG100A [2]; cycle 6,6.261
